Results as given in ChEMBL document CHEMBL1125015, “Synthesis and antiarrhythmic activity of 5,11-dihydro[1]benzoxepino[3,4-b]pyridines” (1990).

Tested on: Canis familiaris
Experiment: No. of cases tested was measured on ouabain induced ventricular arrhythmia at 5 mg/kg, iv in dogs; 0/3
Assay type: functional, Canis lupus familiaris, Cardiac ventricle
Conditions: not given
For `COc1ccc2c(c1)C(NCCN1CCCC1)c1cccnc1CO2` (stereo not given), the No. positive cases/tested was 0.

Tested on: Canis familiaris
Experiment: No. of cases tested was measured on ouabain induced ventricular arrhythmia at 5 mg/kg, iv in dogs; 0/4
Assay type: functional, Canis lupus familiaris, Cardiac ventricle
Conditions: not given
`CCN(CC)CC/C=C1\c2cc(OC)ccc2OCc2ncccc21` showed a No. positive cases/tested of 0.

Tested on: Canis familiaris
Experiment: No. of cases tested was measured on ouabain induced ventricular arrhythmia at 5 mg/kg, iv in dogs; 1/3
Assay type: functional, Canis lupus familiaris, Cardiac ventricle
Conditions: not given
`COc1ccc2c(c1)C(NCCN1[C@H](C)CC[C@@H]1C)c1cccnc1CO2` (stereo not given in full) showed a No. positive cases/tested of 1. Molecule `COc1ccc2c(c1)C(NCCN1C(C)CCCC1C)c1cccnc1CO2` (stereo not given) has a No. positive cases/tested of 1. Work on `CCN(CC)CCCNC1c2cc(OC)ccc2OCc2ncccc21` (stereo not given) yielded a No. positive cases/tested of 1. Molecule `CCN1CCCC1CNC1c2cc(OC)ccc2OCc2ncccc21` (stereo in doubt; 27) [listing 1 of 2 here] has a No. positive cases/tested of 1.

Tested on: Canis familiaris
Experiment: No. of cases tested was measured on ouabain induced ventricular arrhythmia at 5 mg/kg, iv in dogs; 1/4
Assay type: functional, Canis lupus familiaris, Cardiac ventricle
Conditions: not given
`CCN(CC)CC/C=C1/c2cc(OC)ccc2OCc2ncccc21` gave a No. positive cases/tested of 1.

Tested on: Canis familiaris
Experiment: No. of cases tested was measured on ouabain induced ventricular arrhythmia at 5 mg/kg, iv in dogs; 1/7
Assay type: functional, Canis lupus familiaris, Cardiac ventricle
Conditions: not given
In the case of `CCN(CC)CCNC1c2cc(O)ccc2OCc2ncccc21` (stereo not given), the No. positive cases/tested is reported as 1.

Tested on: Canis familiaris
Experiment: No. of cases tested was measured on ouabain induced ventricular arrhythmia at 5 mg/kg, iv in dogs; 2/2
Assay type: functional, Canis lupus familiaris, Cardiac ventricle
Conditions: not given
`CCN(CC)CC/C=C1/c2ccccc2OCc2ncccc21` showed a No. positive cases/tested of 2.

Tested on: Canis familiaris
Experiment: No. of cases tested was measured on ouabain induced ventricular arrhythmia at 5 mg/kg, iv in dogs; 3/3
Assay type: functional, Canis lupus familiaris, Cardiac ventricle
Conditions: not given
For `COc1ccc2c(c1)C(NCCCNC1CCCCC1)c1cccnc1CO2` (stereo not given), the No. positive cases/tested was 3.

Tested on: Canis familiaris
Experiment: No. of cases tested was measured on ouabain induced ventricular arrhythmia at 5 mg/kg, iv in dogs; 3/6
Assay type: functional, Canis lupus familiaris, Cardiac ventricle
Conditions: not given
For `CCN(CC)CCNC1c2cc(OC)ccc2OCc2ncccc21` (stereo not given) [listing 1 of 2 here], the No. positive cases/tested was 3.

Tested on: Canis familiaris
Experiment: No. of cases tested was measured on ouabain induced ventricular arrhythmia at 5 mg/kg, iv in dogs; 6/6
Assay type: functional, Canis lupus familiaris, Cardiac ventricle
Conditions: not given
Work on `CC(C)N(CCC(C(N)=O)(c1ccccc1)c1ccccn1)C(C)C` (stereo not given) [DISOPYRAMIDE] yielded a No. positive cases/tested of 6.

Tested on: Canis familiaris
Experiment: No. of cases tested was measured on ouabain induced ventricular arrhythmia at dose (10mg/Kg, iv); 0/2
Assay type: functional, Canis lupus familiaris, Cardiac ventricle
Conditions: not given
`CCN(CC)CCNC1c2cc(N(C)C)ccc2OCc2ncccc21` (stereo not given) gave a No. positive cases/tested of 0.

Tested on: Canis familiaris
Experiment: No. of cases tested was measured on ouabain induced ventricular arrhythmia at dose 10mg/Kg, iv; 0/3
Assay type: functional, Canis lupus familiaris, Cardiac ventricle
Conditions: not given
Work on `CCN(CC)CCNC1c2ccccc2OCc2ncccc21` (stereo not given) yielded a No. positive cases/tested of 0.

Tested on: Mus musculus
Experiment: Dose (po) required to double the prodrug pupil size
Assay type: functional
Conditions: not given
Molecule `CCN(CC)CCNC1c2cc(OC)ccc2OCc2ncccc21` (stereo not given) [listing 1 of 2 here] has an ED100 of 194 mg/kg. Molecule `CC(C)N(CCC(C(N)=O)(c1ccccc1)c1ccccn1)C(C)C` (stereo not given) [DISOPYRAMIDE] has an ED100 of 20 mg/kg.

Organism: Mus musculus
Experiment: Compound was evaluated by measuring the 50% inhibition of chloroform induced ventricular arrhythmia in mice
Assay type: functional
Conditions: Cardiac ventricle
In the case of `CCN(CC)CCNC1c2cc(OC)ccc2OCc2ncccc21` (stereo not given) [listing 1 of 2 here], the ED50 is reported as 62 mg/kg.

Organism: Mus musculus
Experiment: Inhibition of chloroform induced ventricular arrhythmia
Assay type: functional, Cardiac ventricle
Conditions: Mus musculus, Cardiac ventricle; read-out: ED50
Work on `COc1ccc2c(c1)C(NCCN1[C@H](C)CC[C@@H]1C)c1cccnc1CO2` (stereo not given in full) yielded an ED50 greater than 100 mg/kg. `CCN(CC)CCNC1c2cc(Cl)ccc2OCc2ncccc21` (stereo not given) showed an ED50 greater than 100 mg/kg. In the case of `COc1ccc2c(c1)C(NCCN1C(C)CCCC1C)c1cccnc1CO2` (stereo not given), the ED50 is reported as greater than 100 mg/kg. For `CCN(CC)CC/C=C1/c2cc(OC)ccc2OCc2ncccc21`, the ED50 was 14 mg/kg. `COc1ccc2c(c1)C(NCCN1CCCC1)c1cccnc1CO2` (stereo not given) gave an ED50 greater than 100 mg/kg. `CCN(CC)CCNC1c2cc(N(C)C)ccc2OCc2ncccc21` (stereo not given) gave an ED50 greater than 100 mg/kg. Work on `CCN(CC)CCNC1c2ccccc2OCc2ncccc21` (stereo not given) yielded an ED50 of 93 mg/kg. For `Cc1cccc(C)c1OCC(C)N` (stereo not given) [MEXILETINE], the ED50 was 71 mg/kg. `CCN(CC)CCCNC1c2cc(OC)ccc2OCc2ncccc21` (stereo not given) gave an ED50 of 50 mg/kg. `CCN(CC)CCNC1c2cc(O)ccc2OCc2ncccc21` (stereo not given) gave an ED50 greater than 100 mg/kg. With `CCN1CCCC1CNC1c2cc(OC)ccc2OCc2ncccc21` (stereo in doubt; 27) [listing 1 of 2 here] the ED50 was 58 mg/kg. Molecule `CCN(CC)CC/C=C1\c2ccccc2OCc2ncccc21` has an ED50 of 100 mg/kg. In the case of `CCN(CC)CC/C=C1\c2cc(OC)ccc2OCc2ncccc21`, the ED50 is reported as greater than 100 mg/kg. For `CCN(CC)CCNC1c2cc(C)ccc2OCc2ncccc21` (stereo not given), the ED50 was greater than 100 mg/kg. For `COc1ccc2c(c1)C(NCCCNC1CCCCC1)c1cccnc1CO2` (stereo not given), the ED50 was greater than 100 mg/kg. In the case of `CC(C)N(CCC(C(N)=O)(c1ccccc1)c1ccccn1)C(C)C` (stereo not given) [DISOPYRAMIDE], the ED50 is reported as 35 mg/kg. `CCN(CC)CC/C=C1/c2ccccc2OCc2ncccc21` showed an ED50 greater than 17 mg/kg.

Biological target: T1, Muscarinic acetylcholine receptor (Rattus norvegicus) (UniProt P08482+P08483+P08485+P08911+P10980)
Experiment: Inhibitory effect on muscarinic acetylcholine receptor binding affinity at a concentration of (10e -5)M
Assay type: protein assay
Conditions: not given
Molecule `COc1ccc2c(c1)C(NCCN1[C@H](C)CC[C@@H]1C)c1cccnc1CO2` (stereo not given in full) has an inhibition of 15%. Molecule `COc1ccc2c(c1)C(NCCN1C(C)CCCC1C)c1cccnc1CO2` (stereo not given) has an inhibition of 11%. Molecule `CCN(CC)CC/C=C1/c2cc(OC)ccc2OCc2ncccc21` has an inhibition of 26%. In the case of `COc1ccc2c(c1)C(NCCN1CCCC1)c1cccnc1CO2` (stereo not given), the inhibition is reported as 12%. `CCN(CC)CCNC1c2cc(N(C)C)ccc2OCc2ncccc21` (stereo not given) gave an inhibition of 19%. In the case of `Cc1cccc(C)c1OCC(C)N` (stereo not given) [MEXILETINE], the inhibition is reported as -3%. `CCN(CC)CCNC1c2cc(OC)ccc2OCc2ncccc21` (stereo not given) [listing 2 of 2 here] showed an inhibition of 8%. With `CCN1CCCC1CNC1c2cc(OC)ccc2OCc2ncccc21` (stereo in doubt; 27) [listing 2 of 2 here] the inhibition was 25%. `CCN(CC)CCCNC1c2cc(OC)ccc2OCc2ncccc21` (stereo not given) gave an inhibition of 24%. `CCN(CC)CCNC1c2cc(O)ccc2OCc2ncccc21` (stereo not given) gave an inhibition of -1%. `CCN(CC)CC/C=C1\c2ccccc2OCc2ncccc21` showed an inhibition of 45%. `CCN(CC)CC/C=C1\c2cc(OC)ccc2OCc2ncccc21` showed an inhibition of 27%. In the case of `COc1ccc2c(c1)C(NCCCNC1CCCCC1)c1cccnc1CO2` (stereo not given), the inhibition is reported as -1%. `CC(C)N(CCC(C(N)=O)(c1ccccc1)c1ccccn1)C(C)C` (stereo not given) [DISOPYRAMIDE] showed an inhibition of 7%. With `CCN(CC)CC/C=C1/c2ccccc2OCc2ncccc21` the inhibition was 80%. With `CCN1CCCC1CNC1c2cc(OC)ccc2OCc2ncccc21` (stereo in doubt; 26) the inhibition was 23%.

Biological target: T1, Muscarinic acetylcholine receptor (Rattus norvegicus)
Experiment: Inhibitory effect on muscarinic acetylcholine receptor binding affinity at a concentration of (10e -6)M
Assay type: protein assay
Conditions: not given
For `COc1ccc2c(c1)C(NCCN1[C@H](C)CC[C@@H]1C)c1cccnc1CO2` (stereo not given in full), the inhibition was 3%. `COc1ccc2c(c1)C(NCCN1C(C)CCCC1C)c1cccnc1CO2` (stereo not given) showed an inhibition of 2%. In the case of `CCN(CC)CC/C=C1/c2cc(OC)ccc2OCc2ncccc21`, the inhibition is reported as 5%. Work on `COc1ccc2c(c1)C(NCCN1CCCC1)c1cccnc1CO2` (stereo not given) yielded an inhibition of 3%. Molecule `CCN(CC)CCNC1c2cc(N(C)C)ccc2OCc2ncccc21` (stereo not given) has an inhibition of 4%. `Cc1cccc(C)c1OCC(C)N` (stereo not given) [MEXILETINE] showed an inhibition of -1%. In the case of `CCN(CC)CCNC1c2cc(OC)ccc2OCc2ncccc21` (stereo not given) [listing 2 of 2 here], the inhibition is reported as -3%. Molecule `CCN1CCCC1CNC1c2cc(OC)ccc2OCc2ncccc21` (stereo in doubt; 27) [listing 2 of 2 here] has an inhibition of 3%. Molecule `CCN(CC)CCCNC1c2cc(OC)ccc2OCc2ncccc21` (stereo not given) has an inhibition of 4%. For `CCN(CC)CCNC1c2cc(O)ccc2OCc2ncccc21` (stereo not given), the inhibition was 0%. `CCN(CC)CC/C=C1\c2ccccc2OCc2ncccc21` showed an inhibition of 6%. Work on `CCN(CC)CC/C=C1\c2cc(OC)ccc2OCc2ncccc21` yielded an inhibition of 3%. Molecule `COc1ccc2c(c1)C(NCCCNC1CCCCC1)c1cccnc1CO2` (stereo not given) has an inhibition of -1%. With `CC(C)N(CCC(C(N)=O)(c1ccccc1)c1ccccn1)C(C)C` (stereo not given) [DISOPYRAMIDE] the inhibition was -1%. `CCN(CC)CC/C=C1/c2ccccc2OCc2ncccc21` gave an inhibition of 28%. For `CCN1CCCC1CNC1c2cc(OC)ccc2OCc2ncccc21` (stereo in doubt; 26), the inhibition was 2%.

Tested on: not listed separately
Experiment: Ratio of ED100 (Dose po required to double the prodrug pupil size in mice) to that of ED50 (50% inhibition of chloroform induced ventricular arrhythmia in mice)
Assay type: functional
Conditions: not given
Work on `CCN(CC)CCNC1c2cc(OC)ccc2OCc2ncccc21` (stereo not given) [listing 1 of 2 here] yielded a Ratio of 4. `Cc1cccc(C)c1OCC(C)N` (stereo not given) [MEXILETINE] gave a Ratio of 1.7. With `CC(C)N(CCC(C(N)=O)(c1ccccc1)c1ccccn1)C(C)C` (stereo not given) [DISOPYRAMIDE] the Ratio was 0.6.

Tested on: Canis familiaris
Experiment: No. of cases tested was measured on ouabain induced ventricular arrhythmia at 5 mg/kg, iv in dogs; 2/3
Assay type: functional, Canis lupus familiaris, Cardiac ventricle
Conditions: not given
With `CCN(CC)CC/C=C1\c2ccccc2OCc2ncccc21` the No. positive cases/tested was 2.
